Like-named read-outs stand apart in the source and are kept apart here.
How the values were obtained:
CLK4 = CLK4 (Homo sapiens, UniProt Q9HAZ1); test: In vitro kinase inhibition, ADP-Glo enzyme activity assay; type: biochemical; conditions: read-out: Enzymatic activity (IC50) CLK4
Procedure: (§1) (1) The positive drug was diluted in a 4-fold gradient with DMSO in a dilution plate, with the final initial concentrations of the compound being 1 & 0.02 & 0.1 μM.
(§2) (2) The compound was diluted 50-fold into the 1× kinase reaction buffer and oscillated on an oscillator for 20 min.
(§3) (3) The 2× kinase was prepared using the 1× enzyme reaction buffer.
(§4) (4) 2 μL of the kinase was added per well to the reaction plate.
(§5) (5) 1 μL of the compound diluted in the buffer was added to each well. The plate was sealed with a plate-sealing film, centrifuged at 1000 rpm for 60 s, and incubated at 25° C. for 10 min.
(§6) (6) 4× ATP & sub mixture was prepared using the 1× enzyme reaction buffer, and 1 μL of the 4× ATP & sub mixture was added to the reaction plate.
(§7) (7) The plate was sealed with a plate-sealing film, centrifuged at 1000 rpm for 60 s, and incubated at 25° C. for 60 min.
(§8) (8) 4 μL of ADP-Glo was transferred to the 384 reaction plate, and the plate was centrifuged at 1000 rpm for 1 min and incubated at 25° C. for 40 min.
(§9) (9) 8 μL of Detection solution was transferred to the 384 reaction plate, and the plate was centrifuged at 1000 rpm for 1 min and incubated at 25° C. for 40 min.
(§10) (10) The RLU (relative luminescence unit) signal was read using a BMG multifunctional microplate reader, and the signal intensity was used to characterize the degree of the kinase activity.
(§11) • (1) the ratio of each well was calculated; • (2) the inhibition rate was calculated as follows:
(§12) compound inhibition rate (% inh)=100%−(compound−positive control)/(negative control−positive control)×100% • (3) the IC50 was calculated, and the inhibition curves of the compounds were plotted: • the following nonlinear fitting formula was used to obtain the IC50 (half maximal inhibitory concentration) of the compounds: Graphpad 7.0 software was used for data analysis.
(§13) [formula] • X: log value of the concentration of the compound, Y: inhibition rate (% inhibition).

CLK3 = CLK3 (Homo sapiens, UniProt P49761); test: as above; type: biochemical
Chain of CLK3 (P49761 whole entry): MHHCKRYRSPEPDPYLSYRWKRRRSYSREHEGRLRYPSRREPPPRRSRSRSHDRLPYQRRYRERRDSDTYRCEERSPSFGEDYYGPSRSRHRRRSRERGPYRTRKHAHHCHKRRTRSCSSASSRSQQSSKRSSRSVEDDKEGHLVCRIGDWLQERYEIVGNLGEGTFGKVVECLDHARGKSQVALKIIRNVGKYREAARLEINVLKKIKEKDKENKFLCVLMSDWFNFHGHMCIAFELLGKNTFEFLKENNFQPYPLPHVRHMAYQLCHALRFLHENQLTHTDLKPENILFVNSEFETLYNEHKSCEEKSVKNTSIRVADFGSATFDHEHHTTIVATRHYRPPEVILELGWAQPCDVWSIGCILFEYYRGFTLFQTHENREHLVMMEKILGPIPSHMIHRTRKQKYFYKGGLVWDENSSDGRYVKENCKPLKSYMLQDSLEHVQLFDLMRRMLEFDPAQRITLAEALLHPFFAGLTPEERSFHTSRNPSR
Procedure: as §1, §2, §3, §4, §5, §6, §7, §8, §9, §10, §11, §12, §13

DYRK1A = DYRK1A (Homo sapiens, UniProt Q13627); test: as above; type: biochemical
Procedure: as §1, §2, §3, §4, §5, §6, §7, §8, §9, §10, §11, §12, §13

CLK2 = CLK2 (Homo sapiens, UniProt P49760); test: as above; type: biochemical
Chain of CLK2 (P49760 whole entry): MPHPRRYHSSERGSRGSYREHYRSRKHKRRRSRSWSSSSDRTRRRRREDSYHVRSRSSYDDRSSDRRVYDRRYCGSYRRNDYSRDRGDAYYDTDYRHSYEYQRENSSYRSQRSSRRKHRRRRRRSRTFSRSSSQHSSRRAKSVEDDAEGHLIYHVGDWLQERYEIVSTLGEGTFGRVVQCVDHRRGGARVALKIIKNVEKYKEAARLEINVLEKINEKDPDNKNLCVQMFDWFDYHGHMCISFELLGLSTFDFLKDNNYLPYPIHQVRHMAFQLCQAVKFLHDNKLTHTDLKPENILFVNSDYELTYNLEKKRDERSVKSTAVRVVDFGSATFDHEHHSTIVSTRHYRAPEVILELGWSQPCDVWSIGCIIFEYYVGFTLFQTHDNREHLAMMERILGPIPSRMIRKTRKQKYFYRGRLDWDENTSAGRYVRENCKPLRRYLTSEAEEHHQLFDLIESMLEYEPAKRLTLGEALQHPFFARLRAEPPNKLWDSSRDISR
Procedure: as §1, §2, §3, §4, §5, §6, §7, §8, §9, §10, §11, §12, §13

CLK1 = CLK1 (Homo sapiens, UniProt P49759); test: as above; type: biochemical; conditions: read-out: Enzymatic activity (IC50) CLK1
Chain of CLK1 (P49759 whole entry): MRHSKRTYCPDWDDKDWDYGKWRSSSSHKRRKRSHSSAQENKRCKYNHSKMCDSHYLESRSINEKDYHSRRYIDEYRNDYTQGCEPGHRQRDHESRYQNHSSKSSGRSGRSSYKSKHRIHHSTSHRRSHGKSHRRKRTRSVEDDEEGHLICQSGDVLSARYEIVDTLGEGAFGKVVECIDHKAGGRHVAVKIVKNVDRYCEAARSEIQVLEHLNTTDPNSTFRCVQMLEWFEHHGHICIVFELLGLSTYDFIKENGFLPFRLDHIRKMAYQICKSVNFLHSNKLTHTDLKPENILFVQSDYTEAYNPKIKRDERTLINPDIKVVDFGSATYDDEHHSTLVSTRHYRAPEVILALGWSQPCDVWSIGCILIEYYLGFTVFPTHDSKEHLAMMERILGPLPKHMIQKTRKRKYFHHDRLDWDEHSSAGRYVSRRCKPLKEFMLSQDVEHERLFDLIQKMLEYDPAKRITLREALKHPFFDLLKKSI
Procedure: as §1, §2, §3, §4, §5, §6, §7, §8, §9, §10, §11, §12, §13

[1] = related art statement; cited from earlier work
ACLT model rats = test: In vivo pharmacodynamics in osteoarthritis rats, RT-qPCR of cartilage; set-up: species or system rat; conditions: for expression of ADAMTS5 in cartilage (RT-qPCR) / expression of IHH in cartilage (RT-qPCR) / expression of MMP3 in cartilage (RT-qPCR) / expression of MMP13 in cartilage (RT-qPCR): week 5, versus model group
Procedure: 1. 40 rats were evenly divided into 4 groups, namely, Control (normal rats injected with physiological saline into the joint cavity), Model (ACLT Model rats injected with physiological saline into the joint cavity), low-dose administration group (ACLT Model rats injected with LH020 (1.5 μg/kg) into the joint cavity), and high-dose administration group (ACLT Model rats injected with LH020 (6 μg/kg) into the joint cavity).
2. Knee osteoarthritis was induced by resection of anterior cruciate ligament of the rats (ACLT model).
3. The first week after surgery, physiological saline or LH-020 (1.5 μg/kg. 6 μg/kg) was injected into the joint cavity.
4. Week 5 after administration, cartilage was collected, and the expression of cartilage-associated proteases (MMP3, MMP13, ADAMTS5, IHH, etc.) was detected by RT-qPCR.

[2] = read-out: Enzymatic activity (IC50) CLK3
[3] = read-out: Enzymatic activity (IC50) DYRK1A
[4] = read-out: Enzymatic activity (IC50) CLK2
[5] = high-dose group 6 μg/kg into the joint cavity, effect superior to low-dose group
[6] = low-dose group 1.5 μg/kg into the joint cavity

Chain of CLK4 (Q9HAZ1 whole entry): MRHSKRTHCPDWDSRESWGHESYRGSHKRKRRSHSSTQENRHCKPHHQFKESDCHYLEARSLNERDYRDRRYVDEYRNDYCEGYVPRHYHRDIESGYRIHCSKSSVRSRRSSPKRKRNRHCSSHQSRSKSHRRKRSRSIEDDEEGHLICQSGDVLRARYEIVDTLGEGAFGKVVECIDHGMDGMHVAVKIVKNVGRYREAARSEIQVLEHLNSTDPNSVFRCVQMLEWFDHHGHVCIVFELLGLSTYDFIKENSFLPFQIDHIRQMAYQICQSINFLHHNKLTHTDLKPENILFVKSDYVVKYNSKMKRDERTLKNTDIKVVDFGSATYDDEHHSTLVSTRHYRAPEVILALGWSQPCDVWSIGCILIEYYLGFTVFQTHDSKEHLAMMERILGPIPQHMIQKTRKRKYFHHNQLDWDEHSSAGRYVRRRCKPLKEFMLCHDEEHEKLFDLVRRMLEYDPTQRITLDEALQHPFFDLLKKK

| SMILES | IC50 (CLK4) [nM] | IC50 (CLK3; [2]) [nM] | IC50 (DYRK1A; [3]) [nM] | IC50 (CLK2; [4]) [nM] | IC50 (CLK1) [nM] | further results |
| --- | --- | --- | --- | --- | --- | --- |
| CN1CCN(Cc2cncc(-c3ccc4[nH]nc(-c5nc(=O)c6ccccc6[nH]5)c4c3)c2)CC1 [LH-019] | 50 to 100 | > 100 | 10 to 50 | < 10 | < 10 |  |
| CC(C)CC(=O)Nc1cncc(-c2ccc3[nH]nc(-c4ccncc4)c3c2)c1 [LH-040] | < 10 | 10 to 50 | < 10 | < 10 | 50 to 100 |  |
| CCS(=O)(=O)Nc1cncc(-c2ccc3[nH]nc(-c4nc(=O)c5ccccc5[nH]4)c3c2)c1 [LH-017] | 50 to 100 | > 100 | < 10 | < 10 | < 10 |  |
| CC(C)CC(=O)Nc1cncc(-c2ccc3[nH]nc(-c4nc5c(-c6cccc(F)c6)cncc5[nH]4)c3c2)c1 [SM04690] |  |  |  |  |  | water solubility [1]: poor |
| CC(C)CC(=O)Nc1cncc(-c2ccc3[nH]nc(-c4ccc5ocnc5c4)c3c2)c1 [LH-041] | 10 to 50 | < 10 | 10 to 50 | < 10 | 10 to 50 |  |
| CC(C)C[C@H](N)COc1cncc(-c2ccc3[nH]nc(-c4nc(=O)c5ccccc5[nH]4)c3c2)c1 [LH-020] | 10 to 50 | 50 to 100 | < 10 | < 10 | < 10 | selectivity index for CLK3 (CLK3; CLK3 versus CLK2): 41.5; IC50 (CLK3; read-out: IC50 for CLK3): 81 nM; IC50 (DYRK1A; read-out: IC50 for DYRK1A): 3 nM; IC50 (CLK2; read-out: IC50 for CLK2): 2 nM; chondroprotective effect (ACLT model rats; ACLT model rats, 1.5 and 6 μg/kg into the joint cavity): significant chondroprotective effect; expression of ADAMTS5 in cartilage (RT-qPCR) (ACLT model rats; [5]): significantly down-regulate; expression of IHH in cartilage (RT-qPCR) (ACLT model rats; [5]): significantly down-regulate; expression of MMP3 in cartilage (RT-qPCR) (ACLT model rats; [5]): significantly down-regulate; expression of MMP13 in cartilage (RT-qPCR) (ACLT model rats; [5]): significantly down-regulate; expression of ADAMTS5 in cartilage (RT-qPCR) (ACLT model rats; [6]): significantly down-regulate; expression of IHH in cartilage (RT-qPCR) (ACLT model rats; [6]): significantly down-regulate; expression of MMP3 in cartilage (RT-qPCR) (ACLT model rats; [6]): significantly down-regulate; expression of MMP13 in cartilage (RT-qPCR) (ACLT model rats; [6]): significantly down-regulate |
| O=c1nc(-c2n[nH]c3ccc(-c4cccnc4)cc23)[nH]c2ccccc12 [LH-010] | > 100 | 10 to 50 | 10 to 50 | < 10 | 10 to 50 |  |
| O=c1nc(-c2n[nH]c3ccc(-c4cncc(O)c4)cc23)[nH]c2ccccc12 [LH-018] | < 10 | 10 to 50 | < 10 | < 10 | 50 to 100 |  |
| CC(C)CC(=O)Nc1cncc(-c2ccc3[nH]nc(C4=NCc5ccccc5N4)c3c2)c1 [LH-048] | 10 to 50 | < 10 | < 10 | < 10 | < 10 |  |
| O=C(CC1CC1)Nc1cncc(-c2ccc3[nH]nc(-c4nc(=O)c5ccccc5[nH]4)c3c2)c1 [LH-003] | > 100 | < 10 | 50 to 100 | < 10 | < 10 |  |
| O=C(CC1CCCCC1)Nc1cncc(-c2ccc3[nH]nc(-c4nc(=O)c5ccccc5[nH]4)c3c2)c1 [LH-005] | 10 to 50 | 50 to 100 | 10 to 50 | 10 to 50 | 50 to 100 |  |
| O=C(Nc1cncc(-c2ccc3[nH]nc(-c4nc(=O)c5ccccc5[nH]4)c3c2)c1)C1CCCC1 [LH-004] | 50 to 100 | 10 to 50 | 10 to 50 | 10 to 50 | < 10 |  |
| CN(C)Cc1cncc(-c2ccc3[nH]nc(-c4nc(=O)c5ccccc5[nH]4)c3c2)c1 [LH-011] | > 100 | 50 to 100 | 50 to 100 | < 10 | 50 to 100 |  |
| CC(C)CC(=O)Nc1cncc(-c2ccc3[nH]nc(-c4nc(=O)c5ccccc5[nH]4)c3c2)c1 [LH-001] | 50 to 100 | < 10 | 10 to 50 | < 10 | < 10 |  |
| O=C(Nc1cncc(-c2ccc3[nH]nc(-c4nc(=O)c5ccccc5[nH]4)c3c2)c1)C1CC(F)(F)C1 [LH-016] | 10 to 50 | 10 to 50 | 10 to 50 | < 10 | < 10 |  |
| O=c1nc(-c2n[nH]c3ccc(-c4cncc(CN5CCC(F)(F)C5)c4)cc23)[nH]c2ccccc12 [LH-009] | 10 to 50 | < 10 | < 10 | < 10 | < 10 |  |
| CC(C)CC(=O)Nc1cncc(-c2ccc3[nH]nc(-c4cccnc4)c3c2)c1 [LH-039] | 50 to 100 | < 10 | 10 to 50 | 10 to 50 | 50 to 100 |  |
| CC(C)C[C@H](N)COc1cncc(-c2ccc3[nH]nc(-c4nc(=O)c5ccncc5[nH]4)c3c2)c1 [LH-037] | 10 to 50 | < 10 | < 10 | 10 to 50 | < 10 |  |
| FC1(F)CCN(Cc2cncc(-c3ccc4[nH]nc(C5=NCc6ccccc6N5)c4c3)c2)C1 [LH-049] | > 100 | 10 to 50 | < 10 | < 10 | 50 to 100 |  |
| CC(C)(C)C(=O)Nc1cncc(-c2ccc3[nH]nc(-c4nc(=O)c5ccccc5[nH]4)c3c2)c1 [LH-015] | < 10 | 10 to 50 | < 10 | < 10 | 10 to 50 |  |
| O=c1nc(-c2n[nH]c3ccc(-c4cncc(NCC5CCCCC5)c4)cc23)[nH]c2ccccc12 [LH-006] | 10 to 50 | 50 to 100 | 10 to 50 | 10 to 50 | 10 to 50 |  |

Source: patent publication US20260070889A1, “5-PYRIDINE-1H-INDAZOLE COMPOUND, PHARMACEUTICAL COMPOSITION, AND USE” (CHINA PHARMACEUTICAL UNIVERSITY, priority 2022, published 2026)
